A short description of data set [1]: pKa of the amino group of the compound. From the text:
For the compound having a plurality of amino groups/imino groups, the pKa of amino group described herein refers to the first dissociation constant, that is, pKa of amino group or imino group which firstly dissociates hydrogen ion.

The test system of data set [2] is aggregated platelets induced by ADP. Description: Platelet disaggregation rate of blood samples with ADP-induced platelet aggregation (hematology analyzer, PLT_O).
Description: The compounds in Table 1 above were respectively added to a diluent used for a hematology analyzer to prepare blood sample diluents. […] Each of the compounds in Table 1 (at a final concentration 0.01 mol/L) was added to the diluent separately, pH was adjusted to 14, and the osmotic pressure was adjusted to 200 mOsm/L to obtain the treatment solution.
The venous blood of a healthy subject was collected into blood anticoagulant tubes for later use. Two aliquot blood samples (1 ml/sample) were taken. The above-mentioned diluent was added to one of the samples, the resulting solution was mixed evenly, and then the platelet count was detected in a hematology analyzer (Mindray BC-6000Plus) and recorded as: PLT_O (unaggregated). The platelet aggregation inducer ADP (at a final concentration of 0.01 mmol/L) was added to the other sample, and the resulting solution was mixed evenly. Platelets were aggregated 5 min later, at this time the above-mentioned diluent was added, and then the blood containing the aggregated platelets was detected by the hematology analyzer to obtain the platelet count, which was recorded as: PLT_O (aggregated). Another 1 ml of blood sample was taken, the platelet aggregation inducer ADP (at a final concentration of 0.01 mmol/L) was added, and the resulting solution was mixed evenly. The above-mentioned treatment solution was added 5 min later, the resulting solution was mixed evenly, and then the platelet count of the treated blood was detected by the hematology analyzer and was recorded as: PLT_O (disaggregated).
The mark [3] stands for this setting: Table 3, method of Example 1 (0.01 mol/L, pH 14, ADP 0.01 mmol/L).
[4] abbreviates: Table 4, pH 8.18, method of Example 1.
Setting [5] is: Table 4, pH 9.96, method of Example 1.
[6] abbreviates: Table 5, pH 9.5, method of Example 1.
The mark [7] stands for this setting: Table 2, compound 0.01 mol/L, pH 14, ADP 0.01 mmol/L.
The mark [8] stands for this setting: Table 4, pH 9.14, method of Example 1.
[9] abbreviates: FIG. 13, 10 mmol/L, pH 9.5, ADP 0.01 mmol/L.
The mark [10] stands for this setting: Table 4, pH 5.75, method of Example 1.
The mark [11] stands for this setting: Table 4, pH 10.64, method of Example 1.
Where [12] appears, read: Table 4, pH 10.8, method of Example 1.

Residues, ends and D or L forms follow the SMILES beside them.

The pKa is the negative logarithm of the acid dissociation constant. On to 1,3-diaminopropane, for which the pKa in data set [1] (Table 3) was found to be 10.4. In data set [2] (setting [3]), this molecule returned a Platelet disaggregation rate of 91.14%. As for 2-aminoacetamide, the pKa in data set [1] (Table 4) is on record as 7.93. The molecule also showed a Platelet disaggregation rate in data set [2] (setting [4]) of 64.57%. The molecule 3-amino-1-propanol registered a Platelet disaggregation rate in data set [2] (setting [5]) of 81.43%.

Take `Nc1cc(N)cc(N)c1` [1,3,5-triaminobenzene]: the pKa in data set [1] (pKa, Table 3) was 5.5. Further, the Platelet disaggregation rate in data set [2] (setting [3]) amounted to 72.44%. Regarding `NCC(O)CN` [1,3-diamino-2-propanol], the pKa in data set [1] (Table 3) is recorded as 9.68. In data set [2] (setting [3]), this molecule yielded a Platelet disaggregation rate of 93.78%. Turning to `Nc1ccc(N)c(S(=O)(=O)O)c1` [2,5-diaminobenzene-sulfonic acid], in data set [1] (pKa, Table 3), the pKa was 5.17. For the same molecule, the Platelet disaggregation rate in data set [2] (setting [3]) is recorded as 62.44%.

Regarding `NCC(CN)CN` [2-(aminomethyl)-propane-1,3-diamine], the pKa in data set [1] (pKa, Table 3) was found to be 9.59; in data set [1] (pKa, Table 5), 9.6. The same molecule showed a Platelet disaggregation rate in data set [2] (setting [3]) of 96.43%. In data set [2] (setting [6]), this molecule had a disaggregation rate of 97.46%. Regarding `CNC(CC(N)=O)C(N)=O` (stereo not drawn) [2-(methylamino) succinamide], the pKa in data set [1] (pKa, Table 3) was 7.02. In data set [2] (setting [3]), this molecule gave a Platelet disaggregation rate of 74.43%. For `CNCCO` [2-(methylamino)ethanol], the Platelet disaggregation rate in data set [2] (setting [7]) came to 82.49%%. For `CC(N)C(N)=O` (stereo not drawn) [2-aminopropanamide], the pKa in data set [1] (pKa, Table 4) amounted to 8.18. Besides, the Platelet disaggregation rate in data set [2] (setting [4]) stood at 62.65%. For `CNCc1ccc(O)cc1` [4-[(methylamino)methyl]phenol], the Platelet disaggregation rate in data set [2] (setting [7]) was determined as 59.43%. In data set [1] (pKa, Table 4), `NCCCCO` [4-amino-1-butanol] showed a pKa of 10.3. Further, in data set [2] (setting [5]), the Platelet disaggregation rate stood at 74.45%. In data set [1] (pKa, Table 4), `NCCCC(=O)O` [4-aminobutyric acid] registered a pKa of 10.4.

Take `Nc1ccc(O)cc1` [4-aminophenol]: the pKa in data set [1] was 5.5. Besides, the Platelet disaggregation rate in data set [2] (setting [7]) is reported as 67.73%; in data set [2] (setting [8]), 67.37%. On to `CCCCc1ccc(O)cc1` [4-butylphenol, reference compound], for which the Platelet disaggregation rate in data set [2] (setting [7]) came out at 9.43%.

The molecule `NCc1ccc(O)cc1` [4-hydroxybenzylamine] had a pKa in data set [1] (pKa, Table 4) of 9.14. This molecule also showed a Platelet disaggregation rate in data set [2] (setting [8]) of 51.43%.

With `N.N.O=P(O)(O)O` [(NH4)2HPO4, ammonium hydrogen phosphate], in data set [2] (setting [9]), the disaggregation effect is recorded as 99.25%.

As to `N.N.N.O=P(O)(O)O` [(NH4)3PO4, ammonium phosphate], the disaggregation effect in data set [2] (setting [9]) is listed as 94.87%. Molecule `Br.N` [NH4Br, ammonium bromide] came in with a disaggregation effect in data set [2] (setting [9]) of 93.48%. In data set [2] (setting [9]), `N.N.O=C(O)C(=O)O` [NH4C2O4, ammonium oxalate] yielded a disaggregation effect of 87.67%. As for `N.O=P(O)(O)O` [NH4H2PO4, ammonium dihydrogen phosphate], the disaggregation effect in data set [2] (setting [9]) turned out to be 86.24%. On the same count and under the same terms, to `I.N` [NH4I, ammonium iodide] belongs 92.75%; to `N.O` [NH4OH, ammonia water], 83.05%; to `N.N#CS` [NH4SCN, ammonium thiocyanate], 85.78%. On to `[Cl-].[Na+]` [NaCl, reference compound], for which the disaggregation effect in data set [2] (setting [9]) is listed as 18.90%.

`CC=O` [acetaldehyde, reference compound] had a Platelet disaggregation rate in data set [2] (setting [7]) of 16.54%.

Regarding `CC(N)=O` [acetamide], the results for the Platelet disaggregation rate in data set [2] (setting [7]) and in data set [2] (setting [3]) were 64.57% and 44.44%, respectively. In turn, `CC(=O)O` [acetate, reference compound] displayed a Platelet disaggregation rate in data set [2] (setting [7]) of 11.75%. Take `CC(=O)CC(C)=O` [acetylacetone, reference compound]: the Platelet disaggregation rate in data set [2] (setting [7]) was determined as 8.45%. `NCS(=O)(=O)O` [aminomethanesulfonic acid]: the pKa in data set [1] (pKa, Table 4) came to 5.75. Further, the Platelet disaggregation rate in data set [2] (setting [10]) turned out to be 52.44%. On to `Cl.N` [ammonium chloride], for which the disaggregation effect was 95.70% in data set [2] (setting [9]) and 66.27% in data set [2] (FIG. 14, 50 mmol/L (total for combination, equal parts), ADP 0.1 mmol/L). The disaggregation rate in data set [2] (Table 6, 0.01 mol/L, pH 4.0) worked out at 18.62%; in data set [2] (Table 6, 0.01 mol/L, pH 5.5) it was 31.70%; in data set [2] (Table 6, 0.01 mol/L, pH 6.5) it was 59.61%; in data set [2] (Table 6, 0.01 mol/L, pH 7.5), 94.05%; in data set [2] (Table 6, 0.01 mol/L, pH 8.5), 94.62%; in data set [2] (Table 6, 0.01 mol/L, pH 9.5), 95.70%. The molecule further came in with a disaggregation rate in data set [2] (Table 6, 0.01 mol/L, pH 11.0) of 97.72%. `Nc1ccccc1` [aniline] registered a Platelet disaggregation rate in data set [2] (setting [3]) of 56.26%. Consider `N=C(N)NCCC[C@H](N)C(=O)O` [arginine], for which, in data set [1] (pKa, Table 5), the pKa is 9. This molecule also registered a disaggregation rate in data set [2] (setting [6]) of 62.64%. In data set [2] (setting [7]), `O=S(=O)(O)c1ccccc1` [benzenesulfonic acid, reference compound] registered a Platelet disaggregation rate of 13.77%. Regarding `N=C(N)NC(=N)N` [biguanide], the pKa in data set [1] (pKa, Table 3) was 13.2. This molecule gave a Platelet disaggregation rate in data set [2] (setting [3]) of 97.54%. Take `CCCCN` [butylamine]: the Platelet disaggregation rate in data set [2] (setting [3]) is 87.53%; in data set [2] (setting [11]), 84.34%.

In the case of `CCCC(=O)O` [butyric acid, reference compound], the Platelet disaggregation rate in data set [2] (setting [7]) stood at 11.45%. The same measure, in the same setting: to `CC(=O)NC(C)=O` [diacetamide] belongs 75.43%; to `CCS(=O)(=O)O` [ethanesulfonic acid, reference compound], 16.54%. In data set [2] (setting [7]), `CCO` [ethanol, reference compound] showed a Platelet disaggregation rate of 14.46%. Turning to `NCCO` [ethanolamine], the results for the Platelet disaggregation rate in data set [2] (setting [7]), in data set [2] (setting [3]) and in data set [2] (setting [5]) were 91.45%, 86.45% and 88.45%, respectively. `C=O` [formaldehyde, reference compound] registered a Platelet disaggregation rate in data set [2] (setting [7]) of 13.85%. Consider `N[C@@H](CCC(=O)O)C(=O)O` [glutamic acid], for which the pKa in data set [1] and in data set [1] (Table 5) was 9.6 each time. In data set [2] (setting [6]), this molecule had a disaggregation rate of 63.24%.

`NC(=O)CCC(N)C(=O)O` (stereo not drawn) [glutamine] yielded a Platelet disaggregation rate in data set [2] (setting [4]) of 59.25%.

In turn, `NCC(=O)NCC(=O)O` [gly-gly] (H-Gly-Gly-OH) showed a pKa in data set [1] of 9.6. In data set [2] (setting [6]), this molecule returned a disaggregation rate of 57.29%.

As for `NCC(=O)O` [glycine], the Platelet disaggregation rate in data set [2] (setting [7]) and in data set [2] (setting [3]) was 65.47% throughout. Also, in data set [2] (setting [6]), the disaggregation rate came to 70.47%. On to `N=C(N)N` [guanidine], for which the pKa in data set [1] came to 13.17. For the same molecule, the Platelet disaggregation rate in data set [2] (setting [7]) and in data set [2] (setting [3]) was 84.35% each time.

In data set [1] (pKa, Table 3), `NCCCCC(N)C(=O)NC(CCCCN)C(=O)O` (stereo not drawn) [lys-lys] registered a pKa of 11. For the same molecule, the Platelet disaggregation rate in data set [2] (setting [3]) is reported as 85.75%. As for `NCCCCC(N)C(=O)O` (stereo not drawn) [lysine], the pKa in data set [1] (pKa, Example 4) came out at 10.7; in data set [1] (pKa, Table 3), 10.8. In addition, in data set [2] (setting [3]), the Platelet disaggregation rate came to 70.49%. As for `Nc1cccc(N)c1` [m-phenylenediamine], the pKa in data set [1] (pKa) is 4.67. In data set [2] (setting [3]), this molecule registered a Platelet disaggregation rate of 66.83%. `CCCN` [n-propylamine] returned a Platelet disaggregation rate in data set [2] (setting [11]) of 85.53%. As to `Oc1ccccc1` [phenol, reference compound], the Platelet disaggregation rate in data set [2] (setting [7]) was 8.44%. In turn, `OCN(CO)C(CO)(CO)CO` [reference compound] came in with a pKa in data set [1] of 6.5. Further, the disaggregation rate in data set [2] (setting [6]) stood at 24.0%. Take `CNCC(=O)O` [sarcosine]: the Platelet disaggregation rate in data set [2] (setting [7]) is reported as 64.75%. Molecule `NS(=O)(=O)O` [sulfamic acid] had a pKa in data set [1] of 1.19. Besides, the Platelet disaggregation rate in data set [2] (setting [10]) is listed as 64.54%. Turning to `Nc1ccc(S(=O)(=O)O)cc1` [sulfanilic acid], the pKa in data set [1] (pKa, Example 4) was 10.1; in data set [1] (pKa, Table 3), 3.32. Besides, the Platelet disaggregation rate in data set [2] (setting [7]) and in data set [2] (setting [3]) was 55.15% each time. In data set [1] (pKa, Table 4), `NCCS(=O)(=O)O` [taurine] showed a pKa of 9.12. In data set [2] (setting [10]), this molecule yielded a Platelet disaggregation rate of 46.25%. `CC(=O)O.NC(CO)(CO)CO` [tris(hydroxymethyl)aminomethane acetate]: in data set [2] (setting [6]), the disaggregation rate is recorded as 75.23%. As to `NCCc1ccc(O)cc1` [tyramine], the pKa in data set [1] (pKa, Table 4) came out at 10.6. In data set [2] (setting [8]), this molecule gave a Platelet disaggregation rate of 48.44%. Regarding `N=C(N)NCC(=O)O` [{[amino(imino)methyl]amino}-acetic acid], in data set [1] (pKa, Table 4), the pKa came out at 10.8. Further, the Platelet disaggregation rate in data set [2] (setting [12]) turned out to be 94.02%. For the molecule aminoguanidine, the pKa in data set [1] (Table 3) is given as 11.04. In data set [2] (setting [3]), this molecule showed a Platelet disaggregation rate of 92.35%. For butanol [reference compound], the Platelet disaggregation rate in data set [2] (setting [7]) was 13.14%. Consider ethylamine, for which, in data set [1] (Table 4), the pKa is on record as 10.67. Also, in data set [2] (setting [11]), the Platelet disaggregation rate is reported as 83.32%. On to methyl guanidine, for which the pKa in data set [1] came to 13.2. Moreover, the Platelet disaggregation rate in data set [2] (setting [12]) is on record as 86.36%. tris(hydroxymethyl)aminomethane came in with a pKa in data set [1] (Table 5) of 8.1. The same molecule displayed a disaggregation rate in data set [2] (setting [6]) of 97.32%.

The values above are taken from patent publication US20230152304A1 (SHENZHEN MINDRAY BIO-MEDICAL ELECTRONICS CO., LTD., priority 2020, published 2023).
